Data as given in patent US10189805B2, “Metabolism probes for therapy and diagnosis” (Vanderbilt University, priority 2014, dated 2019).

Biological target: ASCT2 (Homo sapiens (Human), UniProt Q15758)
Experiment: 3H-glutamine uptake inhibition in live HEK-293 cells
Assay type: cell-based
Conditions: for IC50: inhibition of 3H-glutamine (500 nM) uptake, HEK293 cells, 15 min at 37° C., pH 6.0; for potency compared with GPNA (in words): 3H-glutamine uptake, HEK-293 cells
Source text: Initial compound libraries focused on 2, 3, and 4 substituted Nγ-glutamylanilides with aryl, alicyclic, and heterocyclic substitutions. To evaluate the biological activity, compounds were initially screened at a single concentration for their ability to inhibit ^3H-glutamine uptake in live HEK-293 cells, an established model suitable for evaluating ASCT2 activity. […] The present inventors prioritized the 2-substitution as a determinant of ASCT2 activity among this series.
The glutamine uptake assays in HEK293 cells were carried out in 96 well plates (CulturPlate-96, Perkin Elmer). Cells were plated at a density of 35,000 cells per well 24 hours prior to carrying out the assay. Each set of conditions is carried out in triplicate. The wells are washed three times with 100 uL of assay buffer at pH 6.0 (containing 137 mM NaCl, 5.1 mM KCl, 0.77 mM KH2PO4, 0.71 mM MgSO4.7H2O, 1.1 mM CaCl2, 10 mM D-glucose, and 10 mM HEPES). […] (500 nM) in the same buffer is added along with inhibitor and allowed to incubate for 15 min at 37° C. Following incubation, the H-glutamine/inhibitor is removed and the cells are washed three times with buffer. The cells are then lysed by the addition of 50 uL 1M NaOH. 150 uL of scintillation fluid (Microscint 40, Perkin Elmer) is added and the plates are counted on a scintillation counter (Topcount, Perkin Elmer).

Sequence of ASCT2 (Q15758 whole entry): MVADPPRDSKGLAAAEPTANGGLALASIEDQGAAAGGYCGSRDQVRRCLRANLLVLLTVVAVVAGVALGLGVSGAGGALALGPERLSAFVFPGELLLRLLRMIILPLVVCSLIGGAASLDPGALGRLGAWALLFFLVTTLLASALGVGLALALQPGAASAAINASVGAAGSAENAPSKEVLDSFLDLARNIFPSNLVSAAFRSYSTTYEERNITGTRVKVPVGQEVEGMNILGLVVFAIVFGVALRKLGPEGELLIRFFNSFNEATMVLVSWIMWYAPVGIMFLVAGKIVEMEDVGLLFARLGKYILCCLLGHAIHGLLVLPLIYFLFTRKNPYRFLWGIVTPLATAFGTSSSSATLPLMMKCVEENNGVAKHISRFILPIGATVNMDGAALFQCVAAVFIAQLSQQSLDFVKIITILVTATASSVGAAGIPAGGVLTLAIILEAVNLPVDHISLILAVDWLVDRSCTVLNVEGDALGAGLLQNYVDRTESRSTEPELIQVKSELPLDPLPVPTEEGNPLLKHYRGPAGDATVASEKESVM

| Structure (SMILES) | IC50 | potency compared with GPNA (in words) |
| --- | --- | --- |
| N[C@@H](CCC(=O)NCc1ccccc1CS(=O)(=O)N1CCOCC1)C(=O)O [Compound 19] | 677 µM |  |
| N[C@@H](CCC(=O)Nc1ccc([N+](=O)[O-])cc1)C(=O)O [Compound 1, L-γ-glutamyl-p-nitroanilide, reference compound] | 954 µM |  |
| CN1CCN(Cc2ccccc2CNC(=O)CC[C@H](N)C(=O)O)CC1 [Compound 20, N5-(2-((4-methylpiperazin-1-yl)methyl)benzyl)-L-glutamine] | 697 µM | significantly greater potency than GPNA |
| N[C@@H](CCC(=O)Nc1ccccc1-c1nc2ccccc2s1)C(=O)O [Compound 4, N^5-(2-(benzo[d]thiazol-2-yl)phenyl)-L-glutamine] | 436 µM | significantly greater potency than GPNA |

Continued, values first:

| IC50 | potency compared with GPNA (in words) | Structure (SMILES) |
| --- | --- | --- |
| 776 µM |  | N[C@@H](CCC(=O)Nc1ccccc1N1CCCCC1)C(=O)O [Compound 12] |
| 832 µM |  | N[C@@H](CCC(=O)Nc1ccccc1CCc1ccncc1)C(=O)O [Compound 16] |
